Data on 1 compound can be found in patent US20150224190A1, “Combination of a phosphoinositide 3-kinase inhibitor and an inhibitor of the IL-8/CXCR interaction” (priority 2012, published 2015).

The structures appear in SMILES notation.

The test system of test [1] is pS6. Briefly: Target inhibition after single doses: pS6 levels in breast cancer lines. In kind it is cell-based, human. The settings on record: up to 20 hours after treatment, MDA 468, MDA 231 LM2 and mouse 4T-1 breast cancer lines. The method, then:
MDA231, lung metastatic subline MDA231 LM2 (Minn et al., 2005) and SUM159 human breast cancer cells, as well as the Balb/c tumor-derived mammary cancer lines 4T-1 and 168FARN (Aslakson and Miller, 1992), were propagated as previously described. All other cell lines were obtained from and were cultured according to the protocols of ATCC. For treatment with inhibitors, cells were synchronized without serum overnight and then supplemented with culture medium containing the inhibitor(s). For experiments with doxycycline-inducible shRNAs, 500 ng/ml of doxycycline (Sigma) was added to the medium and experiments performed 48 h later. Cell viability assays, cell cycle and cell death measurements were performed at 0.5% FCS in order to avoid masking effects of growth factors present under full-serum conditions.
(§1) Cells for Western Blotting and ELISA were lysed with RIPA buffer. […]
(§2) The present inventors applied single doses of COMPOUND A, a dual PI3K and mTOR inhibitor, and analyzed target inhibition and potential signaling pathway crosstalks after 2, 4, 8 and 20 h hours of treatment. […] While RAD001 readily activated JAK2 starting at 4 hours of treatment, they observed a later response with BKM120 treatment starting at 8 hours after adding the compound. […]

Test [2] deals with pSTAT3. Briefly: pSTAT3 levels on treatment. In kind it is cell-based. The settings on record: BEZ235 treatment. The protocol:
Cells for Western Blotting and ELISA were lysed with RIPA buffer. Xenograft lysates were prepared by lysing kryo-homogenized tumor powder in RIPA buffer (50 mM Tris-HCl pH 8, 150 mM NaCl, 1% NP-40, 0.5% sodium deoxycholate, 0.1% SDS. RIPA was supplemented with 1× protease inhibitor cocktail (Complete Mini, Roche), 0.2 mmol/L sodium-vanadate, 20 mM sodium fluoride and 1 mmol/L phenylmethylsulfonyl fluoride. For IRS-1 immunoprecipitation, cell lysates containing 500-1000 μg of protein were incubated with 1 μg of antibody and 20-50 μl of protein A-Sepharose beads (Zymed Laboratories, Inc., South San Francisco, Calif.) overnight at 4° C. Immunoprecipitates or whole cell lysates (30-80 μg) were subjected to SDS-PAGE, transferred to PVDF membranes (Immobilon-P, Millipore) and blocked for 1 hr at room temperature with 5% milk in PBS-0.1% Tween 20. […]
as §2

The test system of test [3] is JAK2/STAT5. Briefly: JAK2/STAT5 phosphorylation in vivo models. Also noted: species or system mice. The settings on record: after 8 hours of treatment. The protocol:
as §1
For assessing pJAK2 levels, an ELISA assay (Tyr1007/1008, Invitrogen) was applied because of cross-reactivity of all pJAK2 antibodies tested. Interleukin-8 levels in RIPA lysates, cell culture supernatants and mouse tail vein blood plasma were measured by ELISA, as well (Biolegend). […]
SCID/beige, SCID/NOD and Balb/c mice (Jackson Labs) were maintained under specific pathogen-free conditions and were used in compliance with protocols approved by the Institutional Animal Care and Use Committees of the FMI, which conform to institutional and national regulatory standards on experimental animal usage. […] Tumors were measured every 3 to 4 days with vernier calipers, and tumor volumes were calculated by the formula 0.5×(larger diameter)×(smaller diameter)^2. End point tumor sizes were analyzed for synergism using the formula AB/C<A/C×B/C, where C=tumor volume VHC, A=tumor volume compound 1, B=tumor volume compound 2, AB=tumor volume combination (Clarke, 1997). […]

For the compound `Cn1c(=O)n(-c2ccc(C(C)(C)C#N)cc2)c2c3cc(-c4cnc5ccccc5c4)ccc3ncc21` [COMPOUND A, 2-methyl-2-[4-(3-methyl-2-oxo-8-quinolin-3-yl-2,3-dihydro-imidazo[4,5-c]quinolin-1-yl)-phenyl]-propionitrile], in test [1], the pS6 levels entry is “completely blocked”. Also, in test [2], the “Levels of pSTAT3” value is given as “largely unaffected”. Further, in test [3], the pJAK2 entry is on record as “considerable upregulation” and the pSTAT5 entry is “considerable upregulation”.
